Values of other authors, collected in patent US9339460B2, “Self-emulsifiable liquid florfenicol composition intended to be incorporated into the drinking water of livestock” (VIRBAC SA, priority 2007, dated 2016).

Conditions: in water

"miscibility" of Florfenicol: 12 g/L
Structure (SMILES): CS(=O)(=O)c1ccc([C@@H](O)[C@@H](CF)NC(=O)C(Cl)Cl)cc1 [Florfenicol]
